Source: publication PMC3014287 (Molecular cell, 2010)
Blank lines part the entries; values can stand above or below the compound they belong to.

Assays:
PKCβII [1] = target: T1, PKCβII (Homo sapiens, UniProt P05771); assay: […] kinase assay with substrate peptide, Dixon plot; type: biochemical
PKCβII [2] = target: T1, PKCβII; assay: as above; type: biochemical; remark: listed apart in the source
[3] = target: AKAP79(1-81)-CKAR (human) (UniProt P24588)

Ki (PKCβII [1]): 14.5 ± 4.6 nM
Compound: CN(C)CCCn1cc(C2=C(c3c[nH]c4ccccc34)C(=O)NC2=O)c2ccccc21 [BIS I, bisindolylmaleimide I]

Compound: O=C1NC(=O)C(c2c[nH]c3ccccc23)=C1c1c[nH]c2ccccc12 [BIS IV, bisindolylmaleimide IV]
32P kinase assay with substrate peptide, Dixon plot (PKCβII [2]): BIS IV, a bisindolylmaleimide derivative that lacks the dimethylamino group is an uncompetitive inhibitor with respect to the substrate peptide

T½ of the FRET response of the reporter to Oxo-M in CHO cells (cellular PKC) [3]: 8.3 s
Compound: PKCβII (Calbiochem) (from UniProt P05771-2 1-673) (enzyme)
